Test system: immunoglobulin light chain protein WIL-FL T46L
Assay: Differential scanning fluorimetry (thermal shift) assay
Format: binding
Details: temperature shift [Tm]compound-[Tm]vehicle, recombinant WIL-FL T46L

| SMILES | DSF (Table A) | DSF (Table B) |
| --- | --- | --- |
| Cc1cc(N2CCC(C)(c3ccc(F)cc3F)C2)cn2nc(C(=O)N3C[C@@H]4CN(c5cccc(C(=O)O)n5)C[C@@H]4C3)nc12 (stereo partly shown) [Compound 388] | **** (>1.5-2.5° C.=****) |  |
| Cc1cc(N2CCC(C)(c3c(F)cccc3F)C2)cn2nc(C(=O)N3C[C@@H]4CN(c5cccc(C(=O)O)n5)C[C@@H]4C3)nc12 (stereo partly shown) [Compound 389] | ***** (>2.5° C.=*****) |  |
| CCC1(c2ccccc2)CN(c2cc(C)c3nc(C(=O)NC4CCN(c5cccc(C(=O)O)n5)CC4)nn3c2)C1 [Compound 390] | ***** (>2.5° C.=*****) |  |
| CCC1(c2ccccc2)CN(c2cc(CO)c3nc(C(=O)NC)nn3c2)C1 [Compound 391] | ***** (>2.5° C.=*****) |  |
| CCC1(c2ccccc2)CN(c2cc(CO)c3nc(C(=O)NC4CCN(c5cccc(C(=O)O)n5)CC4)nn3c2)C1 [Compound 392] | ***** (>2.5° C.=*****) |  |
| CCC1(c2ccccc2)CN(c2cc(C)c3nc(C(=O)N4CC5CN(c6cccc(C(=O)O)n6)CC5C4)nn3c2)C1 (stereo not shown) [Compound 393] | ***** (>2.5° C.=*****) |  |
| CCC1(c2ccccc2)CN(c2cc(C)c3nc(C(=O)N4CCC5(CCN(c6cccc(C(=O)O)n6)C5)C4)nn3c2)C1 (stereo not shown) [Compound 394] | ***** (>2.5° C.=*****) |  |
| CCC1(c2ccccc2)CN(c2cc(C)c3nc(C(=O)NC4CCN(c5ccnc(C(=O)O)c5)CC4)nn3c2)C1 [Compound 395] | ***** (>2.5° C.=*****) |  |
| CCC1(c2ccc(C)cc2)CN(c2cc(C)c3nc(C(=O)N4C[C@@H]5CN(c6cccc(C(=O)O)n6)C[C@@H]5C4)nn3c2)C1 [Compound 396] | ***** (>2.5° C.=*****) |  |
| CCC1(c2cccc(C)c2)CN(c2cc(C)c3nc(C(=O)N4C[C@@H]5CN(c6cccc(C(=O)O)n6)C[C@@H]5C4)nn3c2)C1 [Compound 397] | ***** (>2.5° C.=*****) |  |
| Cc1cc(N2CC(C)(c3ccccc3)C2)cn2nc(C(=O)N3CC[C@@]4(CCN(c5cccc(C(=O)O)n5)C4)C3)nc12 [Compound 398] | ***** (>2.5° C.=*****) |  |
| Cc1cc(N2CC(C)(c3ccccc3)C2)cn2nc(C(=O)N3C[C@@H]4CN(c5cccc(C(=O)O)n5)C[C@@H]4C3)nc12 [Compound 399] | ***** (>2.5° C.=*****) |  |
| Cc1cnc(C2(C)CCN(c3cc(C)c4nc(C(=O)N5CC6CN(c7cccc(C(=O)O)n7)CC6C5)nn4c3)C2)nc1 (stereo not shown) [Compound 400] | ** (>0.5-1 °C =**) |  |
| Cc1cc(N2CCC(C)(c3nn[nH]n3)C2)cn2nc(C(=O)N3C[C@@H]4CN(c5cccc(C(=O)O)n5)C[C@@H]4C3)nc12 (stereo partly shown) [Compound 401, 6-[5-[8-methyl-6-[3-methyl-3-(2H-tetrazol-5-yl)pyrrolidin-1-yl]-[1,2,4]triazolo[1,5-a]pyridine-2-carbonyl]-1,3,3a, 4,6,6a-hexahydropyrrolo[3,4-c]pyrrol-2-yl]pyridine-2-carboxylic acid] | * (0-0.5° C.=*) |  |
| COC(=O)c1cc(-n2nnc3c2CCN(C(=O)c2nc4c(C)cc(N5CC[C@](C)(c6ccccc6)C5)cn4n2)C3)ccn1 [Compound 402] | ***** (>2.5° C.=*****) |  |
| COC(=O)c1cccc(-c2nc3n(n2)CCN(C(=O)c2nc4c(C)cc(N5CC[C@](C)(c6ccccc6)C5)cn4n2)C3)n1 [Compound 403] | ***** (>2.5° C.=*****) |  |
| Cc1cc(N2CC[C@](C)(c3ccccc3)C2)cn2nc(C(=O)N3CCn4nc(-c5cccc(C(=O)O)n5)nc4C3)nc12 [Compound 404] | ***** (>2.5° C.=*****) |  |
| Cc1cc(N2CC[C@](C)(c3ccccc3)C2)cn2nc(C(=O)N3CCn4nc(-c5cc(C(=O)O)ccn5)nc4C3)nc12 [Compound 405] | ***** (>2.5° C.=*****) |  |
| COC(=O)c1cccc(-c2nnc3n2CCN(C(=O)c2nc4c(C)cc(N5CC[C@](C)(c6ccccc6)C5)cn4n2)C3)n1 [Compound 406] | ***** (>2.5° C.=*****) |  |
| Cc1cc(N2CC[C@](C)(c3ccccc3)C2)cn2nc(C(=O)N3CCn4c(nnc4-c4ccnc(C(=O)O)c4)C3)nc12 [Compound 407] | ***** (>2.5° C.=*****) |  |
| Cc1cc(N2CC[C@](C)(c3ccccc3)C2)cn2nc(C(=O)N3CCn4c(nnc4-c4cccc(C(=O)O)n4)C3)nc12 [Compound 408] | ***** (>2.5° C.=*****) |  |
| COc1cccc([C@@]2(C)CCN(c3cc(C)c4nc(C(=O)N5CC[C@@]6(CCN(c7cccc(C(=O)O)n7)C6)C5)nn4c3)C2)c1 [Compound 409] | ***** (>2.5° C.=*****) |  |
| Cc1cc(N2CCC(C)(c3ccccc3O)C2)cn2nc(C(=O)N3CC[C@@]4(CCN(c5cccc(C(=O)O)n5)C4)C3)nc12 (stereo partly shown) [Compound 410] | *** (>1-1.5° C.=***) |  |
| COc1ccc([C@@]2(C)CCN(c3cc(C)c4nc(C(=O)N5CC[C@@]6(CCN(c7cccc(C(=O)O)n7)C6)C5)nn4c3)C2)cc1 [Compound 411] | ***** (>2.5° C.=*****) |  |
| Cc1cc(OC(C)c2ccc(F)c(Cl)c2)cn2nc(C(=O)N3CC[C@@]4(CCC(c5cccc(C(=O)O)n5)C4)C3)nc12 (stereo partly shown) [Compound 412] | * (0-0.5° C.=*) |  |
| Cc1cc(N2CCC(C)(c3ccc(O)cc3)C2)cn2nc(C(=O)N3CC[C@@]4(CCN(c5cccc(C(=O)O)n5)C4)C3)nc12 (stereo partly shown) [Compound 413] | **** (>1.5-2.5° C.=****) |  |

| SMILES | DSF (Table A) | DSF (Table B) |
| --- | --- | --- |
| Cc1ccc([C@@]2(C)CCN(c3cc(C)c4nc(C(=O)N5C[C@@H]6CN(c7cccc(C(=O)O)n7)C[C@@H]6C5)nn4c3)C2)cc1 [Compound 414] | ***** (>2.5° C.=*****) |  |
| Cc1cccc([C@@]2(C)CCN(c3cc(C)c4nc(C(=O)N5C[C@@H]6CN(c7cccc(C(=O)O)n7)C[C@@H]6C5)nn4c3)C2)c1 [Compound 415] | ***** (>2.5° C.=*****) |  |
| Cc1cccc([C@@]2(C)CCN(c3cc(C)c4nc(C(=O)N5CC[C@@]6(CCN(c7cccc(C(=O)O)n7)C6)C5)nn4c3)C2)c1 [Compound 416] | ***** (>2.5° C.=*****) |  |
| Cc1cc(N2CCC(C)(c3ccccc3Cl)C2)cn2nc(C(=O)N3CC[C@@]4(CCN(c5cccc(C(=O)O)n5)C4)C3)nc12 (stereo partly shown) [Compound 417] | ***** (>2.5° C.=*****) |  |
| Cc1cc(N2CC[C@](C)(c3cccc(Cl)c3)C2)cn2nc(C(=O)N3C[C@@H]4CN(c5cccc(C(=O)O)n5)C[C@@H]4C3)nc12 [Compound 418] | ***** (>2.5° C.=*****) |  |
| Cc1cc(N2CC[C@](C)(c3ccc(Cl)cc3)C2)cn2nc(C(=O)N3C[C@@H]4CN(c5cccc(C(=O)O)n5)C[C@@H]4C3)nc12 [Compound 420] | ***** (>2.5° C.=*****) |  |
| Cc1cc(N2CCC(C)(c3ccc(F)c(F)c3)C2)cn2nc(C(=O)N3C[C@@H]4CN(c5cccc(C(=O)O)n5)C[C@@H]4C3)nc12 (stereo partly shown) [Compound 421] | ***** (>2.5° C.=*****) |  |
| Cc1cc(N2CCC(C)(c3ccc(F)cc3)C2)cn2nc(C(=O)NC3CCN(c4ccnc(C(=O)O)c4)CC3)nc12 (stereo not shown) [Compound 422] | ***** (>2.5° C.=*****) |  |
| Cc1cc(N2CCC(C)(c3ccc(F)cn3)C2)cn2nc(C(=O)N3CC[C@@]4(CCN(c5cccc(C(=O)O)n5)C4)C3)nc12 (stereo partly shown) [Compound 423] | *** (>1-1.5° C.=***) |  |
| Cc1cc(N2CCC(C)(c3cncc(F)c3)C2)cn2nc(C(=O)N3CC[C@@]4(CCN(c5cccc(C(=O)O)n5)C4)C3)nc12 (stereo partly shown) [Compound 424] | **** (>1.5-2.5° C.=****) |  |
| CNC(=O)c1nc2c(C)cc(N3CCC(C)(c4ccccc4F)C3)cn2n1 (stereo not shown) [Compound 425] | ***** (>2.5° C.=*****) |  |
| Cc1cc(N2CCC(C)(c3ccccc3F)C2)cn2nc(C(=O)N3CC[C@@]4(CCN(c5cccc(C(=O)O)n5)C4)C3)nc12 (stereo partly shown) [Compound 426] | ***** (>2.5° C.=*****) |  |
| Cc1cc(N2CCC(C)(c3cccnc3)C2)cn2nc(C(=O)N3CC[C@@]4(CCN(c5cccc(C(=O)O)n5)C4)C3)nc12 (stereo partly shown) [Compound 427] | *** (>1-1.5° C.=***) |  |
| Cc1cc(N2CC[C@@](C)(c3ccc(F)cc3)C2)cn2nc(C(=O)N3CC[C@@]4(CCN(c5cccc(C(=O)O)n5)C4)C3)nc12 [Compound 428] | ***** (>2.5° C.=*****) |  |
| Cc1cc(N2CC[C@](C)(c3ccc(F)cc3)C2)cn2nc(C(=O)N3CC[C@@]4(CCN(c5cccc(C(=O)O)n5)C4)C3)nc12 [Compound 429] | ***** (>2.5° C.=*****) |  |
| Cc1cc(N2CCC(C)(C#N)C2)cn2nc(C(=O)N3CC4CN(c5cccc(C(=O)O)n5)CC4C3)nc12 (stereo not shown) [Compound 430] | * (0-0.5° C.=*) |  |
| Cc1cc(N2CC3(c4ccccc4)CC2C3)cn2nc(C(=O)N3CC4CN(c5cccc(C(=O)O)n5)CC4C3)nc12 (stereo not shown) [Compound 431] | * (0-0.5° C.=*) |  |
| Cc1cc(N2CCOC(C)(c3ccccc3)C2)cn2nc(C(=O)N3CC4CN(c5cccc(C(=O)O)n5)CC4C3)nc12 (stereo not shown) [Compound 432] | * (0-0.5° C.=*) |  |
| CNC(=O)c1cc2c(C)cc(N3CC[C@](C)(c4ccccc4)C3)cn2n1 [Compound 433] | ***** (>2.5° C.=*****) |  |
| CNC(=O)c1cn2cc(N3CC[C@](C)(c4ccccc4)C3)cc(C)c2n1 [Compound 434] | ***** (>2.5° C.=*****) |  |
| CNC(=O)c1nc2c(C)cc(N3CC[C@@](C)(c4ccccc4)C3)cc2o1 [Compound 435] | ***** (>2.5° C.=*****) |  |
| Cc1n[nH]c(C2C3COC2(c2nc4c(C)cc(OC[C@H](C)c5ccccc5)cn4n2)C3)n1 (stereo partly shown) [Compound 436] | ***** (>2.5° C.=*****) |  |
| Cc1cc(OC[C@H](C)c2ccccc2)cn2nc(C34CC(CO3)C4C(N)=O)nc12 (stereo partly shown) [Compound 437] | *** (>1-1.5° C.=***) |  |
| Cc1cc(N2CC[C@](C)(c3ccccc3)C2)cn2nc(C34CC(CO3)C4c3nc(N)n[nH]3)nc12 (stereo partly drawn) [Compound 438, 5-[1-[8-methyl-6-[(3R)-3-methyl-3-phenyl-pyrrolidin-1-yl]-[1,2,4]triazolo[1,5-a]pyridine-2-yl]-2-oxabicyclo[2.1.1]hexan-5-yl]-1H-1,2,4-triazol-3-amine] | ***** (>2.5° C.=*****) |  |
| Cc1cc(N2CC[C@](C)(c3ccccc3)C2)cn2nc(C(=O)N3CC4(C(=O)O)CC3C4)nc12 [Compound 439] | ***** (>2.5° C.=*****) |  |
| Cc1cc(N2CC[C@](C)(c3ccccc3)C2)cn2nc(C34CC(C(=O)NC(C)(C)C(=O)O)(CO3)C4)nc12 [Compound 440, (R)-2-methyl-2-(1-(8-methyl-6-(3-methyl-3-phenylpyrrolidin-1-yl)-[1,2,4]triazolo[1,5-a]pyridin-2-yl)-2-oxabicyclo[2.1.1]hexane-4-carboxamido)propanoic acid] |  | ***** (>2.5° C.=*****) |
